Measured values from ChEMBL document CHEMBL1201862, “PubChem BioAssay data set” (2004).
Several values for one entry are separate records, joined by “and”; a condition that tells them apart may be missing. Equal entries are not always repeated.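 Growth conditions: 96-well plates. Treatment: test compound, 48 hours, 5 concentrations. Analysis: linear interpolation between bracketing concentrations; unreached endpoints set to highest concentration. Abbreviation: GI50, concentration required for 50% inhibition of growth.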 Activity calls are given as the source filed them. No stated cut-off is given here; in the data, active = GI50 up to about 1.1 µM and inactive = higher.

Experiments:
Test in all cases: growth of human tumour cells (NCI), 48 h
[1] = tested on: KM12
[2] = tested on: TK-10
[3] = tested on: COLO 205
[4] = tested on: HOP-92
[5] = tested on: 786-0
[6] = tested on: HL-60
[7] = tested on: HOP-62
[8] = tested on: MOLT-4
[9] = tested on: MDA-N
[10] = tested on: SF-295
[11] = tested on: RPMI-8226
[12] = tested on: HCT-116
[13] = tested on: T47D
[14] = tested on: LOX IMVI
[15] = tested on: SK-MEL-5
[16] = tested on: SW-620
[17] = tested on: HCT-15
[18] = tested on: SK-MEL-2
[19] = tested on: UO-31
[20] = tested on: SF-268
[21] = tested on: ACHN
[22] = tested on: SN12C
[23] = tested on: A549
[24] = tested on: SNB-75
[25] = tested on: CAKI-1
[26] = tested on: CCRF-CEM
[27] = tested on: PC-3
[28] = tested on: IGROV-1
[29] = tested on: NCI-H522
[30] = tested on: OVCAR-5
[31] = tested on: MCF7
[32] = tested on: SF-539
[33] = tested on: MDA-MB-435
[34] = tested on: NCI-H226
[35] = tested on: MDA-MB-231
[36] = tested on: Hs-578T
[37] = tested on: SNB-19
[38] = tested on: NCI-H23
[39] = tested on: SR
[40] = tested on: EKVX
[41] = tested on: OVCAR-3
[42] = tested on: SK-OV-3
[43] = tested on: UACC-257
[44] = tested on: DU-145
[45] = tested on: OVCAR-4
[46] = tested on: UACC-62
[47] = tested on: OVCAR-8
[48] = tested on: K562
[49] = tested on: U-251
[50] = tested on: SK-MEL-28
[51] = tested on: RXF 393
[52] = tested on: NCI/ADR-RES
[53] = tested on: M14
[54] = tested on: HCC 2998
[55] = tested on: HT-29
[56] = tested on: NCI-H460
[57] = tested on: A498
[58] = tested on: Malme-3M
[59] = tested on: BT-549

**Q.** Which results are given for `c1ccc2c(c1)CCN2CCN1CCc2ccccc21`?
**A.** GI50 [1]: > 10 µM (inactive); GI50 [2]: > 10 µM (inactive); GI50 [3]: > 10 µM (inactive); GI50 [4]: > 10 µM (inactive); GI50 [5]: > 10 µM (inactive); GI50 [6]: > 10 µM (inactive); GI50 [7]: > 10 µM (inactive); GI50 [8]: > 10 µM (inactive); GI50 [9]: > 10 µM (inactive); GI50 [10]: > 10 µM (inactive); GI50 [11]: > 10 µM (inactive); GI50 [12]: > 10 µM (inactive); GI50 [13]: > 10 µM (inactive); GI50 [14]: > 10 µM (inactive); GI50 [15]: > 10 µM (inactive); GI50 [16]: > 10 µM (inactive); GI50 [17]: > 10 µM; GI50 [18]: > 10 µM (inactive); GI50 [19]: > 10 µM (inactive); GI50 [20]: > 10 µM (inactive); GI50 [21]: > 10 µM (inactive); GI50 [22]: > 10 µM (inactive); GI50 [23]: > 10 µM (inactive); GI50 [24]: > 10 µM (inactive); GI50 [25]: > 10 µM (inactive); GI50 [26]: > 10 µM (inactive); GI50 [27]: > 10 µM (inactive); GI50 [28]: > 10 µM (inactive); GI50 [29]: > 10 µM (inactive); GI50 [30]: > 10 µM (inactive); GI50 [31]: > 10 µM (inactive); GI50 [32]: > 10 µM (inactive); GI50 [33]: > 10 µM (inactive); GI50 [34]: > 10 µM (inactive); GI50 [35]: > 10 µM (inactive); GI50 [36]: > 10 µM (inactive); GI50 [37]: > 10 µM (inactive); GI50 [38]: > 10 µM (inactive); GI50 [39]: > 10 µM (inactive); GI50 [40]: > 10 µM (inactive); GI50 [41]: > 10 µM (inactive); GI50 [42]: > 10 µM (inactive); GI50 [43]: > 10 µM (inactive); GI50 [44]: > 10 µM (inactive); GI50 [45]: > 10 µM (inactive); GI50 [46]: > 10 µM (inactive); GI50 [47]: > 10 µM (inactive); GI50 [48]: > 10 µM (inactive); GI50 [49]: > 10 µM (inactive); GI50 [50]: > 10 µM (inactive); GI50 [51]: > 10 µM (inactive); GI50 [52]: > 10 µM (inactive); GI50 [53]: > 10 µM (inactive); GI50 [54]: > 10 µM (inactive); GI50 [55]: > 10 µM (inactive); GI50 [56]: > 10 µM (inactive)

**Q.** `CC(=O)N1CN2C(=O)CCC2c2ccccc21` (stereo not drawn) was tested. Which GI50 [1] did it give?
**A.** > 100 µM (inactive)

**Q.** And the GI50 [2]?
**A.** > 100 µM (inactive)

**Q.** What about the GI50 [57] of the same compound?
**A.** > 100 µM (inactive)

**Q.** And the GI50 [3]?
**A.** > 100 µM (inactive)

**Q.** What about the GI50 [4] of the same compound?
**A.** > 100 µM (inactive)

**Q.** And the GI50 [5]?
**A.** > 100 µM (inactive)

**Q.** What about the GI50 [6] of the same compound?
**A.** > 10 µM (inactive)

**Q.** And the GI50 [7]?
**A.** > 100 µM (inactive)

**Q.** And the GI50 [8]?
**A.** > 100 µM (inactive)

**Q.** What about the GI50 [9] of the same compound?
**A.** > 100 µM (inactive)

**Q.** And the GI50 [10]?
**A.** > 100 µM (inactive)

**Q.** What about the GI50 [11] of the same compound?
**A.** > 100 µM (inactive)

**Q.** And the GI50 [12]?
**A.** > 100 µM (inactive)

**Q.** What about the GI50 [13] of the same compound?
**A.** > 100 µM (inactive)

**Q.** And the GI50 [14]?
**A.** > 100 µM (inactive)

**Q.** And the GI50 [15]?
**A.** > 100 µM (inactive)

**Q.** What about the GI50 [16] of the same compound?
**A.** > 100 µM (inactive)

**Q.** And the GI50 [17]?
**A.** > 100 µM

**Q.** What about the GI50 [18] of the same compound?
**A.** > 100 µM (inactive)

**Q.** What about the GI50 [19] of the same compound?
**A.** > 100 µM (inactive)

**Q.** And the GI50 [20]?
**A.** > 100 µM (inactive)

**Q.** And the GI50 [21]?
**A.** > 100 µM (inactive)

**Q.** And the GI50 [22]?
**A.** > 100 µM (inactive)

**Q.** What about the GI50 [23] of the same compound?
**A.** > 100 µM (inactive)

**Q.** What about the GI50 [24] of the same compound?
**A.** > 100 µM (inactive)

**Q.** What about the GI50 [25] of the same compound?
**A.** > 100 µM (inactive)

**Q.** What about the GI50 [26] of the same compound?
**A.** > 100 µM (inactive)

**Q.** What about the GI50 [27] of the same compound?
**A.** > 100 µM (inactive)

**Q.** And the GI50 [28]?
**A.** > 100 µM (inactive)

**Q.** And the GI50 [29]?
**A.** > 100 µM (inactive)

**Q.** And the GI50 [30]?
**A.** > 100 µM (inactive)

**Q.** And the GI50 [31]?
**A.** > 100 µM (inactive)

**Q.** What about the GI50 [32] of the same compound?
**A.** > 100 µM (inactive)

**Q.** And the GI50 [33]?
**A.** > 100 µM (inactive)

**Q.** What about the GI50 [34] of the same compound?
**A.** > 100 µM (inactive)

**Q.** And the GI50 [35]?
**A.** > 100 µM (inactive)

**Q.** What about the GI50 [36] of the same compound?
**A.** > 100 µM (inactive)

**Q.** And the GI50 [37]?
**A.** > 100 µM (inactive)

**Q.** And the GI50 [38]?
**A.** > 100 µM (inactive)

**Q.** What about the GI50 [39] of the same compound?
**A.** 0.165 µM (active)

**Q.** And the GI50 [40]?
**A.** > 100 µM (inactive)

**Q.** What about the GI50 [41] of the same compound?
**A.** > 100 µM (inactive)

**Q.** What about the GI50 [42] of the same compound?
**A.** > 100 µM (inactive)

**Q.** What about the GI50 [43] of the same compound?
**A.** > 100 µM (inactive)

**Q.** And the GI50 [58]?
**A.** > 100 µM (inactive)

**Q.** What about the GI50 [44] of the same compound?
**A.** > 100 µM (inactive)

**Q.** What about the GI50 [45] of the same compound?
**A.** > 100 µM (inactive)

**Q.** And the GI50 [46]?
**A.** > 100 µM (inactive)

**Q.** And the GI50 [47]?
**A.** > 100 µM (inactive)

**Q.** And the GI50 [48]?
**A.** > 100 µM (inactive)

**Q.** And the GI50 [49]?
**A.** > 100 µM (inactive)

**Q.** What about the GI50 [50] of the same compound?
**A.** > 100 µM (inactive)

**Q.** And the GI50 [51]?
**A.** > 100 µM (inactive)

**Q.** And the GI50 [52]?
**A.** > 100 µM (inactive)

**Q.** What about the GI50 [53] of the same compound?
**A.** > 100 µM (inactive)

**Q.** And the GI50 [54]?
**A.** > 100 µM (inactive)

**Q.** And the GI50 [55]?
**A.** > 100 µM (inactive)

**Q.** And the GI50 [56]?
**A.** > 100 µM (inactive)

**Q.** Which GI50 [2] does the source give for `CC(C)=CCC/C(C)=C\CCC1(C)OC(=O)C2CC21` (stereo not drawn) here?
**A.** 56.6 µM (inactive)

**Q.** What about the GI50 [57] of the same compound?
**A.** 98.9 µM (inactive)

**Q.** And the GI50 [3]?
**A.** 49.1 µM (inactive) and 59.8 µM (inactive)

**Q.** What about the GI50 [6] of the same compound?
**A.** 18.5 µM (inactive) and 12.3 µM (inactive)

**Q.** What about the GI50 [7] of the same compound?
**A.** > 100 µM (inactive) and 53.5 µM (inactive)

**Q.** What about the GI50 [8] of the same compound?
**A.** 18.1 µM (inactive) and 22.7 µM (inactive)

**Q.** What about the GI50 [11] of the same compound?
**A.** 28.3 µM (inactive) and 19.7 µM (inactive)

**Q.** What about the GI50 [13] of the same compound?
**A.** > 100 µM (inactive) and 63.4 µM (inactive)

**Q.** What about the GI50 [14] of the same compound?
**A.** 15 µM (inactive) and 27.7 µM (inactive)

**Q.** And the GI50 [15]?
**A.** 43.6 µM (inactive) and 41.1 µM (inactive)

**Q.** And the GI50 [18]?
**A.** 45.6 µM (inactive)

**Q.** What about the GI50 [19] of the same compound?
**A.** 44.4 µM (inactive) and 37.2 µM (inactive)

**Q.** What about the GI50 [20] of the same compound?
**A.** > 100 µM (inactive)

**Q.** And the GI50 [24]?
**A.** 55.7 µM (inactive)

**Q.** And the GI50 [25]?
**A.** 23.8 µM (inactive) and 32.3 µM (inactive)

**Q.** What about the GI50 [27] of the same compound?
**A.** 25.9 µM (inactive) and 35.4 µM (inactive)

**Q.** And the GI50 [30]?
**A.** > 100 µM (inactive)

**Q.** What about the GI50 [35] of the same compound?
**A.** 50.5 µM (inactive)

**Q.** And the GI50 [37]?
**A.** > 100 µM (inactive) and 71.1 µM (inactive)

**Q.** What about the GI50 [38] of the same compound?
**A.** 28.7 µM (inactive) and 40.4 µM (inactive)

**Q.** And the GI50 [41]?
**A.** 51.5 µM (inactive) and 27.5 µM (inactive)

**Q.** And the GI50 [43]?
**A.** 73.6 µM (inactive) and 47.3 µM (inactive)

**Q.** And the GI50 [59]?
**A.** 31.8 µM (inactive) and 34 µM (inactive)

**Q.** And the GI50 [58]?
**A.** 80.2 µM (inactive)

**Q.** What about the GI50 [44] of the same compound?
**A.** 92.7 µM (inactive)

**Q.** And the GI50 [48]?
**A.** 22.4 µM (inactive) and 17.2 µM (inactive)

**Q.** And the GI50 [51]?
**A.** 40.6 µM (inactive)

**Q.** And the GI50 [52]?
**A.** 42.4 µM (inactive) and 33.3 µM (inactive)

**Q.** What about the GI50 [54] of the same compound?
**A.** 21.1 µM (inactive) and 36.1 µM (inactive)
